LD50 data for 5 compounds are collected here from US4293553A, “1-Phthalazone derivatives, and use thereof” (Ishikawa; Masayuki, priority 1978, dated 1981).

As usually defined, the LD50 is the dose expected to kill half of the subjects tested.

SMILES strings stand for the structures.

This data set is described as follows: Acute toxicity, LD50 in mice (Litchfield and Wilcoxon). The settings on record: mouse, in vivo, po. The procedure: LD50 values were determined in mice and calculated according to the method of Litchfield and Wilcoxon described in J. Pharmacol. Exp. Ther., 96, 99 (1949).
Take `CCOC(=O)c1c(C)cc2cnn(-c3ccccc3F)c(=O)c2c1C` [7-ethoxycarbonyl-6,8-dimethyl-2-(o-fluorophenyl)-1-phthalazone]: the LD50 was 450 mg/kg.

Take `CCOC(=O)c1c(C)cc2c(CO)nn(-c3ccccc3Cl)c(=O)c2c1C` [7-ethoxycarbonyl-6,8-dimethyl-2-(o-chlorophenyl)-4-hydroxymethyl-1-phthalazone]: the LD50 was 564 mg/kg.

With `CCOC(=O)c1c(C)cc2c(CO)nn(-c3ccccc3)c(=O)c2c1C` [7-ethoxycarbonyl-6,8-dimethyl-4-hydroxymethyl-2-phenyl-1-phthalazone], the LD50 turned out to be 540 mg/kg.

In the case of `CCOC(=O)c1c(C)cc2cnn(-c3ccccc3)c(=O)c2c1C` [7-ethoxycarbonyl-6,8-dimethyl-2-phenyl-1-phthalazone], the LD50 came out at 480 mg/kg.

In turn, `CCOC(=O)c1c(C)cc2cnn(-c3ccccc3Cl)c(=O)c2c1C` [7-ethoxycarbonyl-6,8-dimethyl-2-(o-chlorophenyl)-1-phthalazone] returned an LD50 of 386 mg/kg.
